One test relates to obese diabetic mice. As to conditions: cited from earlier work.
Test [1] deals with HeLa cells. As to conditions: stated ability of mimosine (arrest in G1); cited from earlier work.
Test [2] concerns HeLa cells. In words: CellTiter 96 AQueous One (MTS) endpoint growth assay with mimosine. As to conditions: mimosine 50 and 250 μM, 3 d exposure (Day 5 post miRNA transfection). The class given is cell-based, human. How it is done:
Endpoint growth assays were then performed using the CellTiter 96® AQueous One Solution Cell Proliferation System (MTS) (Promega, USA) to determine effects of miRNAs and mimosine on cell proliferation. HeLa cells were transiently transfected with miRNA negative control or hsa-miR-331-3p/hsa-miR-642-5p as described above, and 5000 transiently transfected HeLa cells were plated in 96 well plates. Plates were incubated in a 37° C. incubator (5% CO2) for 2 days and then exposed for a further 3 days to mimosine (0, 50 or 250 μM). Media was then replaced with a MTS substrate/growth media mixture (180 μL of growth media, 20 μL MTS reagent) and left for 30 min at 37° C. Absorbance was measured using a Fluostar Optima Instrument (Walker scientific) at 450 nm.

Test [3] concerns HeLa cells. In words: Observation of HeLa cell morphology and size under mimosine. Type of test: cell-based, human. As to conditions: increasing concentrations of mimosine. The method, then:
The effect of the combination of hsa-miR-331-3p and hsa-miR-642-5p on the transient effects of the DOHH inhibitor mimosine in HeLa cells was assessed. Initially, the xCELLigence™ System was used but growth curves could not be established using mimosine that reflected the observed changes in cell viability (data not shown). […] This was attributed to the ability of mimosine to arrest cell in […] and increase cell size by up to 25%.

The structures appear in SMILES notation.

For `N=C(N)NCCCCCCCN` [GC7, N1-guanyl-1,7-diaminoheptane], in the test with obese diabetic mice, the Glucose tolerance entry is given as “improved glucose tolerance”, the Insulin release entry is listed as “increased insulin release” and the β cell mass entry was “enhanced β cell mass”.
As to `NC(Cn1ccc(=O)c(O)c1)C(=O)O` (stereo not drawn) [mimosine], the “Increase of cell size” value with HeLa cells [1] is “up to 25%”. In addition, the “HeLa cell proliferation (MTS), mimosine alone” value in the test on HeLa cells [2] is listed as “significant block of cell proliferation”. The HeLa cell morphology entry with HeLa cells [3] was “changed the morphology of HeLa cells from a spindle like epithelial morphology to a large, round and flattened morphology”.

Source of the values: US20150126581A1, “MicroRNAs and Uses Thereof” (The University of Western Australia, priority 2012, published 2015).
